US8507514B2, “Hydrazide compound and use of the same in pest control” (Sumitomo Chemical Company, Limited, priority 2009, dated 2013)

Tests used:
[1] = test system: Musca domestica; assay: Test Example 1: Musca domestica filter paper/sucrose bait test; type: in vivo; conditions: 500 ppm test solution, 0.7 ml on filter paper with sucrose bait, 10 female imagoes, after 24 hours, read-out: pest death rate
Procedure: (§1) Formulations of some compounds of the present invention were obtained according to Formulation Example 5. The formulation was diluted with water to prepare a test solution having 500 ppm of the active ingredient.
A filter paper having a diameter of 5.5 cm was spread on the bottom of a polyethylene cup having a diameter of 5.5 cm and 0.7 ml of the test solution was added dropwise onto the filter paper. As a bait, 30 mg of sucrose was uniformly placed on the filter paper. Into the polyethylene cup, 10 female imagoes of Musca domestica were released and the cup was sealed with a lid. After 24 hours, the number of surviving or dead Musca domestica was counted and a pest death rate was calculated according to the following equation. Pest death rate(%)=(Number of dead imagoes/Number of tested imagoes)×100

[2] = test system: Spodoptela litura; assay: Test Example 4: Spodoptela litura larvae on treated artificial diet; type: in vivo; conditions: 144 h; 500 ppm test solution, 2 mL on artificial diet Insecta LF; 5 fourth instar larvae; after 6 days; read-out: pest death rate
Procedure: as §1
A filter paper having a diameter of 5.5 cm was spread on the bottom of a polyethylene cup having a diameter of 5.5 cm. Insecta LF (manufactured by NOSAN CORPORATION), an artificial diet, was sliced to 6 mm in thickness, cut into half, and then placed on the filter paper. Then, 2 mL of the test solution was poured into the polyethylene cup. After the test solution was air-dried, 5 fourth instar larvae of Spodoptela litura were released into the polyethylene cup and the cup was sealed with a lid. After 6 days, the number of surviving or dead Spodoptela litura was counted and a pest death rate was calculated according to the following equation. Pest death rate(%)=(Number of dead larvae/Number of tested larvae)×100

Row | Structure (SMILES) | pest or weed control at 500 ppm [1] [%] | pest or weed control at 500 ppm [2] [%]
1 | CC(=O)NN(C(=O)OC(C)(C)C)c1cccc(C2=NOC(c3cc(Cl)cc(Cl)c3)(C(F)(F)F)C2)c1 (stereo not shown) [(1)] | 100 | ≥ 80
2 | CC(=O)NN(C)c1cccc(C2=NOC(c3cc(Cl)cc(Cl)c3)(C(F)(F)F)C2)c1 (stereo not shown) [(5)] |  | ≥ 80
3 | O=C(CC(F)(F)F)NNc1cccc(C2=NOC(c3cc(Cl)cc(Cl)c3)(C(F)(F)F)C2)c1 (stereo not shown) [(7)] | 100 | 
4 | Cc1ccc(C2=NOC(c3cc(Cl)cc(Cl)c3)(C(F)(F)F)C2)cc1NNC(=O)CC(F)(F)F (stereo not shown) [(8)] | 100 | 
5 | O=C(CC(F)(F)F)NNc1cc(C2=NOC(c3cc(Cl)cc(Cl)c3)(C(F)(F)F)C2)ccc1F (stereo not shown) [(10)] | 100 | 
6 | O=C(CC(F)(F)F)NNc1cc(C2=NOC(c3cc(Cl)cc(Cl)c3)(C(F)(F)F)C2)ccc1Cl (stereo not shown) [(11)] | 100 | 
7 | CC(C)CC(=O)NNc1cc(C2=NOC(c3cc(Cl)cc(Cl)c3)(C(F)(F)F)C2)ccc1Cl (stereo not shown) [(15)] | 100 | 
8 | CC(C)(C)C(=O)NNc1cc(C2=NOC(c3cc(Cl)cc(Cl)c3)(C(F)(F)F)C2)ccc1Cl (stereo not shown) [(23)] | 100 | 
9 | O=C(Cc1ccccc1)NNc1cc(C2=NOC(c3cc(Cl)cc(Cl)c3)(C(F)(F)F)C2)ccc1Cl (stereo not shown) [(26)] |  | ≥ 80
10 | O=C(CCCBr)NNc1cc(C2=NOC(c3cc(Cl)cc(Cl)c3)(C(F)(F)F)C2)ccc1Cl (stereo not shown) [(34)] |  | ≥ 80
11 | O=C(CCCC(F)(F)F)NNc1cc(C2=NOC(c3cc(Cl)cc(Cl)c3)(C(F)(F)F)C2)ccc1Cl (stereo not shown) [(36)] | 100 | ≥ 80
12 | COCC(=O)NNc1cc(C2=NOC(c3cc(Cl)cc(Cl)c3)(C(F)(F)F)C2)ccc1Cl (stereo not shown) [(38)] | 100 | ≥ 80
13 | CC(C)(CCl)C(=O)NNc1cc(C2=NOC(c3cc(Cl)cc(Cl)c3)(C(F)(F)F)C2)ccc1Cl (stereo not shown) [(40)] | 100 | ≥ 80
14 | CC(=O)N(NC(=O)CCC(F)(F)F)c1cc(C2=NOC(c3cc(Cl)cc(Cl)c3)(C(F)(F)F)C2)ccc1Cl (stereo not shown) [(53)] |  | ≥ 80
15 | COCC(=O)NN(C(=O)c1ccccc1)c1cc(C2=NOC(c3cc(Cl)cc(Cl)c3)(C(F)(F)F)C2)ccc1Cl (stereo not shown) [(57)] |  | ≥ 80
